Assay results: PMC11277992, “New Zosteropenillines and Pallidopenillines from the Seagrass-Derived Fungus Penicillium yezoense KMM 4679” (Marine Drugs, 2024)

Experiments:
[1] = tested on: Candida albicans KMM 455; assay: Antimicrobial activity, microbial growth in broth (OD620); format: cell-based; conditions: for inhibition of growth at 100 µM: Candida albicans, KMM455, compound at 100 µM, read-out: Inhibition of Microbial Growth, % of Control, C. albicans
Protocol: (§1) The yeast-like fungus Candida albicans KMM 455 and bacterial strains Staphylococcus aureus ATCC 21027 and Escherichia coli VKPM (B-7935) (Collection of Marine Microorganisms PIBOC FEB RAS) were cultured on solid-medium Mueller–Hinton broth with agar (16.0 g/L) in a Petri dish at 37 °C for 24 h. The assays were performed in 96-well microplates in an appropriate Mueller–Hinton broth. Each well contained 90 µL of a bacterial or yeast-like fungal suspension (10^6 CFU/mL). Then, 10 µL was added of a compound diluted at concentrations from 1.5 µM to 100.0 µM using twofold dilution (DMSO concentration < 1%). Culture plates were incubated overnight at 37 °C, and the OD620 was measured using a Multiskan FC spectrophotometer (Thermo Scientific Inc., Beverly, MA, USA). The antibiotic gentamicin and antifungal agent nitrofungin were used as positive controls at 1 mg/mL; 1% DMSO in PBS served as a negative control. Examination was performed twice and in triplicate. The results were calculated as a percentage of the control data using SigmaPlot 14.0 software.

[2] = tested on: Escherichia coli VKPM (B-7935); assay: as above; format: cell-based; conditions: read-out: Inhibition of Microbial Growth, % of Control, E. coli; for inhibition of growth at 100 µM: compound at 100 µM
Protocol: as §1

[3] = tested on: Staphylococcus aureus ATCC 21027; assay: as above; format: cell-based; conditions: read-out: Inhibition of Microbial Growth, % of Control, S. aureus; for inhibition of growth at 100 µM: ATCC21027, compound at 100 µM
Protocol: as §1

[4] = tested on: normal human kidney cells; assay: Cytotoxic activity (MTT assay); format: cell-based; conditions: 100 µM, 24 h
Protocol: (§2) The influence of compounds 1, 2 and 4–14 on the viability of normal human kidney […] cells, as well as human prostate PC-3, cervical HeLa and breast MCF-7 cancer cells, was measured using the MTT assay after 24 h of treatment.
(§3) The human prostate cancer cells PC-3 and CRL-1435 and the human embryonic kidney cells HEK-293 and CRL-1573TM were purchased from the American Type Culture Collection (ATCC; Manassas, VA, USA). PC-3 and HEK-293 cells were cultured in DMEM medium containing 10% fetal bovine serum (Biolot, St. Petersburg, Russia) and 1% penicillin/streptomycin (Biolot, St. Petersburg, Russia) at 37 °C in a humidified atmosphere with 5% (v/v) CO2. The cells were incubated in cultural flasks until sub-confluent (~80%).
PC-3 cells (5 × 10^3 cells/well) and HEK 293 cells (8 × 10^3 cells/well) were seeded in a 96-well plate and incubated overnight. Then, compounds were added at concentrations of 1–100 μM and incubated for another 24 h. Cell viability was then determined by the MTT (3-(4,5-dimethylthiazol-2-yl)-2,5-diphenyltetrazolium bromide) method according to the manufacturer’s instructions (Sigma-Aldrich, St. Louis, MO, USA). The absorbance of the converted formazan was measured using a Multiskan FC microplate photometer (Thermo Scientific, Waltham, MA, USA) at λ = 570 nm. The results are presented as percentages of the control data.

[5] = tested on: human prostate PC-3 cancer cells; assay: Cytotoxic activity (MTT assay); format: cell-based; conditions: 100 µM, 24 h, MTT
Protocol: as §3
(§4) PC-3 cells (5 × 10^3 cells/well) and HEK 293 cells (8 × 10^3 cells/well) were seeded in a 96-well plate and incubated overnight. […] Cell viability was then determined by the MTT (3-(4,5-dimethylthiazol-2-yl)-2,5-diphenyltetrazolium bromide) method according to the manufacturer’s instructions (Sigma-Aldrich, St. Louis, MO, USA). The absorbance of the converted formazan was measured using a Multiskan FC microplate photometer (Thermo Scientific, Waltham, MA, USA) at λ = 570 nm. The results are presented as percentages of the control data.

[6] = tested on: cervical HeLa cancer cells; assay: Cytotoxic activity (MTT assay); format: cell-based, human; conditions: 24 h; for Cell Viability, % of Control, HeLa: 100 µM, MTT; for IC50: Homo sapiens, HeLa, read-out: IC50, HeLa cell viability
[7] = tested on: breast MCF-7 cancer cells; assay: Cytotoxic activity (MTT assay); format: cell-based, human; conditions: 100 µM, 24 h, MTT
Protocol: as §2, §4

[8] = tested on: CoCl2-treated HEK-293 cells; assay: Lipid peroxidation level (MitoCLox) in CoCl2-treated cells; format: cell-based, human; conditions: MitoCLox fluorescence dye
Protocol: The fluorescence probe MitoCLox (Lumiprobe, Moscow, Russia) was used for the detection of the lipid peroxidation level in CoCl2-treated cells. It was added in the cells for 1 h at a concentration of 200 nM. After 1 h, the cells were washed with PBS and fluorescence was measured in ratiometric mode with λem = 520/590 nm using a PHERAStar FS plate reader (BMG Labtech, Offenburg, Germany). The data were processed with MARS Data Analysis v. 3.01R2 (BMG Labtech, Offenburg, Germany) and calculated as a 520/590 ratio.

[9] = tested on: MCF-7 cells; assay: Drug combination study with doxorubicin (MTT); format: cell-based, human; conditions: 24 h

Row | SMILES | inhibition of growth at 100 µM [1] [%] | inhibition of growth at 100 µM [2] [%] | inhibition of growth at 100 µM [3] [%] | Cell Viability, % of Control, HEK-298 [4] | Cell Viability, % of Control, PC-3 [5] | Cell Viability, % of Control, HeLa [6] | Cell Viability, % of Control, MCF-7 [7] | inhibition of growth at 1000 µg/mL ([2]; positive control at 1 mg/mL) [%] | inhibition of growth at 1000 µg/mL ([3]; ATCC21027, positive control at 1 mg/mL) [%] | lipid peroxide levels in CoCl2-treated HEK-293 cells [8] | decrease of MCF-7 cell viability ([9]; doxorubicin alone at 0.1 µM) [%] | decrease of MCF-7 cell viability ([9]; doxorubicin alone at 1 µM) | Inhibition of Microbial Growth, % of Control, C. albicans ([1]; positive control at 1 mg/mL) | IC50 [6] [µM]
1 | C[C@H]1CC[C@H]2[C@@H](C=C[C@@](C)(O)[C@@H]2C(=O)CCO)[C@@H]1O [Compound 13, pallidopenilline A] | 0 | 0 | 15.5 ± 1.35 | 89.76 ± 3.31 % of Control | 89.76 ± 3.31 % of Control | 71.85 ± 3.02 % of Control | 95.05 ± 1.51 % of Control |  |  |  |  |  |  | 
2 | CC1(O)CCC2C(C=CC(C)(O)C2C(=O)CCO)C1 (centres unmarked) [Compound 4, 8-hydroxyzosteropenilline G] | 11 ± 2.31 | 0 | 0 | 94.71 ± 1.53 % of Control | 94.71 ± 1.53 % of Control | 81.80 ± 6.76 % of Control | 81.92 ± 3.92 % of Control |  |  |  |  |  |  | 
3 | CC(=O)C1C2CCC(C)C(O)C2C=CC1(C)O (centres unmarked) [Compound 7, zosteropenilline Q] | 19.2 ± 3.12 | 0 | 29.9 ± 4.5 | 80.00 ± 0.99 % of Control | 88.70 ± 1.10 % of Control | 80.80 ± 3.25 % of Control | 76.23 ± 4.53 % of Control |  |  |  |  |  |  | 
4 | CNC(C)C1CCC(N)C(OC2C(N)CC(N)C(OC3OCC(C)(O)C(NC)C3O)C2O)O1 (centres unmarked) [Gentamicin, gentamicin, reference compound] |  |  |  |  |  |  |  | 97.6 ± 2.1 | 98.6 ± 1.15 |  |  |  |  | 
5 | CC(=O)[C@@H]1[C@H]2CC[C@H](CO)C[C@@H]2C=C[C@@]1(C)O [Compound 6, zosteropenilline P] | 17.3 ± 2.55 | 0 | 29 ± 1.66 | 83.26 ± 3.78 % of Control | 83.15 ± 1.72 % of Control | 71.44 ± 3.99 % of Control | 82.05 ± 1.31 % of Control |  |  |  |  |  |  | 
6 | C[C@H]1CC[C@H]2C(=C[C@@H](O)[C@@](C)(O)[C@@H]2C(=O)CCO)C1 [Compound 9, zosteropenilline R] | 12 ± 1.14 | 0 | 11.7 ± 1.71 | 96.45 ± 7.64 % of Control | 96.44 ± 7.63 % of Control | 79.14 ± 6.36 % of Control | 79.64 ± 1.67 % of Control |  |  | significantly decreased |  |  |  | 
7 | C[C@H]1C=C[C@H]2[C@H](O)[C@@H](C)CC[C@@H]2[C@H]1C(=O)CCO [Compound 8, 13-dehydroxypallidopenilline A] | 0 | 0 | 19.9 ± 1.82 | 86.10 ± 2.24 % of Control | 83.60 ± 1.81 % of Control | 72.66 ± 2.49 % of Control | 81.21 ± 5.56 % of Control |  |  |  |  |  |  | 
8 | COc1cccc2c1C(=O)c1c(O)c3c(c(O)c1C2=O)C[C@@](O)(C(=O)CO)C[C@@H]3O[C@H]1C[C@H](N)[C@H](O)[C@H](C)O1 [doxorubicin, reference compound] |  |  |  |  |  |  |  |  |  |  | 30 | approximately 60% |  | 
9 | O=[N+]([O-])c1ccc(O)c(Cl)c1 [nitrofungin, reference compound] |  |  |  |  |  |  |  |  |  |  |  |  | 98.13 ± 0.69 % of Control | 
10 | CC1=CC(O)C2CC(C)(O)CCC2C1C(=O)CCO (stereo not drawn) [Compound 2, 11-epi-8-hydroxyzosteropenilline M] | 6.12 ± 1.89 | 0 | 0 | 90.98 ± 2.82 % of Control | 90.98 ± 2.82 % of Control | 44.12 ± 5.13 % of Control | 57.46 ± 1.82 % of Control |  |  |  |  |  |  | 87.3
11 | CC1CCC2C(C1)C(Cl)C(O)C(C)(O)C2C(=O)CCO (centres unmarked) [Compound 10, zosteropenilline S] | 0 | 0 | 15.7 ± 0.36 | 98.10 ± 1.15 % of Control | 85.98 ± 2.13 % of Control | 68.69 ± 6.21 % of Control | 84.85 ± 4.90 % of Control |  |  |  |  |  |  | 
12 | CC1=C[C@H](O)[C@H]2C[C@@H](C)CC[C@@H]2[C@H]1C(=O)CCO [Compound 1, zosteropenilline M] | 8.32 ± 0.62 | 0 | 30.1 ± 2.42 | 95.16 ± 4.01 % of Control | 89.25 ± 0.44 % of Control | 66.49 ± 6.19 % of Control | 86.42 ± 1.76 % of Control |  |  | significantly decreased |  |  |  | 
13 | CC(=O)[C@@H]1[C@H]2CC[C@@](C)(O)C[C@@H]2C=C[C@@]1(C)O [Compound 5, zosteropenilline O] | 35.3 ± 1.16 | 0 | 0 | 85.64 ± 1.85 % of Control | 91.20 ± 3.37 % of Control | 37.12 ± 3.85 % of Control | 77.40 ± 2.73 % of Control |  |  | significantly decreased |  |  |  | 82.5
